Columns and labels:
[1] = Behaviour in water (aggregation, solubility); format: physicochemical
[2] = Ultrasound-responsive NO release, real-time NO analysis; format: physicochemical; details: FIG. 5
Protocol: Subsequently, ultrasound-responsive NO release of the nanogenerator was monitored under physiological conditions (DPBS, pH 7.4, 37° C.). When ultrasound was absent, only a small overall amount (1.53 nmol/mg) of NO was released.

Structure (SMILES): CCC(C)N(N=O)c1ccc(N(N=O)C(C)CC)cc1 (centres unmarked) [BNN6, N,N′-di-sec-butyl-N,N′-dinitroso-1,4-phenylenediamine]
- water solubility [1]: water-insoluble
- ultrasound-responsive nitric oxide release behavior [2]: complete NO-releasability

From patent US11660342B2, “Method for increasing permeability of blood-brain barrier” (POSTECH Research and Business Development Foundation, priority 2020, dated 2023)
